molecular target: T1, human liver glycogen phosphorylase (Homo sapiens, UniProt P06737); assay: Liver glycogen phosphorylase activity, forward reaction system (NADPH detection at 340 nm); format: biochemical; conditions: enzyme inhibitory activity against recombinant human liver glycogen phosphorylase (Sf9 cell lysate), room temperature, 75 minutes
T1 construct: made in house; host or cells: Sf9 insect cells (suspension of disrupted cells, diluted in BES buffer, not purified)
T1 sequence (P06737 1-847): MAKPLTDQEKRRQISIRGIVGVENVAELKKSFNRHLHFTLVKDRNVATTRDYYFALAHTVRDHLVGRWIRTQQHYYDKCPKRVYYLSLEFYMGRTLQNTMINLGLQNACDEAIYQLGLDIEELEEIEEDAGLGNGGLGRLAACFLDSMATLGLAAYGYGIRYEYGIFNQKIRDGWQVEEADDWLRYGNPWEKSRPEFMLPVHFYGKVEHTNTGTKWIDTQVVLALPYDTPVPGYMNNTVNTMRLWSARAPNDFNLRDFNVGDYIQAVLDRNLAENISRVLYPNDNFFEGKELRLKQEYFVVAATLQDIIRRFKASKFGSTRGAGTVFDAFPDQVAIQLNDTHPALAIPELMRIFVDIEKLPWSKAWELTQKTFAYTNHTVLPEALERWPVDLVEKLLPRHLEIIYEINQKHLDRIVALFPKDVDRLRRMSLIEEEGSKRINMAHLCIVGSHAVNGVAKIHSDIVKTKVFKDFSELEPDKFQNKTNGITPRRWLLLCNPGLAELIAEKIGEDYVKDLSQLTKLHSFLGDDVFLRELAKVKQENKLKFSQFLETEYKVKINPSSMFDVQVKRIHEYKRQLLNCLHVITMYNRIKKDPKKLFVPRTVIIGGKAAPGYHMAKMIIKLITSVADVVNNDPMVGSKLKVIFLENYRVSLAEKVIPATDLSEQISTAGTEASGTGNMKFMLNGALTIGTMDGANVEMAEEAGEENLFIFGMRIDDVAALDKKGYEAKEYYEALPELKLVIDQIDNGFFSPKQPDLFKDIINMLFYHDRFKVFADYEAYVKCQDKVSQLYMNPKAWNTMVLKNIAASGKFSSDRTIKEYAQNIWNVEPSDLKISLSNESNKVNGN
Procedure: The glycogen phosphorylase activity was determined by a method using a forward reaction system.
The following method was used to determine the glycogen phosphorylase activity using a forward reaction system. Glucose-1-phosphate generated from glycogen by glycogen phosphorylase was converted to glucono-δ-lactone-6-phosphate by transphosphorylation and dehydrogenation reactions using phosphoglucomutase and glucose-6-phosphate dehydrogenase (G6PDH). At this time, NADPH generated from NADP in the dehydrogenation reaction by G6PDH was detected.
An enzyme solution of human liver glycogen phosphorylase was obtained by diluting with 100 mmol/L BES buffer (pH 6.8, containing 2 mmol/L EDTA) a suspension disrupted Sf9 cells in which a recombinant human liver glycogen phosphorylase was forcibly expressed. Phosphate buffer (16 mmol/L KH2PO4, containing 24 mmol/L Na2HPO4) was used as a substrate solution. A mixture of 8 U/mL phosphoglucomutase and 60 U/mL G6PDH was prepared with BES buffer. A reaction buffer (1.4 mmol/L NADP, 30 mmol/L MgCl2, 8 μmol/L glucose-1,6-diphosphate, 8 mg/mL glycogen, 40 mmol/L BES, containing 0.8 mmol/L EDTA) and a glucose solution (75 mmol/L glucose and 100 mmol/L BES, containing 2 mmol/L EDTA) were prepared. A test substance was dissolved in 1% DMSO aqueous solution.
To a mixture of the glucose solution (20 μL), the substrate solution (20 μL), the reaction buffer (100 μL), and the test substance (20 μL), the recombinant human liver glycogen phosphorylase solution (20 μL), and a mixture (20 μL) of phosphoglucomutase and G6PDH were added to initiate an enzymatic reaction. To a control, 1% DMSO aqueous solution was added instead of the test substance. A solution to which the substrate was not added was used as a blank. After initiation of the reaction, absorbance at 340 nm was measured immediately. The reaction was performed at room temperature for 75 minutes, and then absorbance at 340 nm was measured again. The enzyme activity was obtained by deducting the change in absorbance of the blank for 75 minutes from the change in absorbance over 75 minutes. The inhibition rate (%) of the test substance was calculated by “(1−(enzyme activity of test substance)/(enzyme activity of control))×100”.
“IC50” represents an enzyme inhibitory activity against human liver glycogen phosphorylase.

| Structure (SMILES) | IC50 [nM] |
| --- | --- |
| Cc1nc(COCc2ccccc2)oc1CNC(=O)c1cc(NC(=O)c2cc(F)c(F)cc2Cl)[nH]n1 [Example 1-47, 5-(2-chloro-4,5-difluoro-benzoylamino)-1H-pyrazole-3-carboxylic acid (2-benzyloxymethyl-4-methyl-oxazol-5-ylmethyl)-amide] | < 100 |
| CCOC(=O)COCc1nc(C)c(CNC(=O)c2cc(NC(=O)c3cc(F)c(F)cc3Cl)[nH]n2)o1 [Example 1-48, 5-(2-chloro-4,5-difluoro-benzoylamino)-1H-pyrazole-3-carboxylic acid (2-ethoxycarbonylmethoxymethyl-4-methyl-oxazol-5-ylmethyl)-amide] | < 100 |
| Cc1nc(Sc2ccccc2)oc1CNC(=O)c1cc(NC(=O)c2cc(F)c(F)cc2Cl)[nH]n1 [Example 1-49, 5-(2-chloro-4,5-difluoro-benzoylamino)-1H-pyrazole-3-carboxylic acid (4-methyl-2-phenylsulfanyl-oxazol-5-ylmethyl)-amide] | < 100 |
| COC(=O)c1nc(C)c(CNC(=O)c2cc(NC(=O)c3cc(F)c(F)cc3Cl)[nH]n2)o1 [Example 1-50, 5-(2-chloro-4,5-difluoro-benzoylamino)-1H-pyrazole-3-carboxylic acid (2-methoxycarbonyl-4-methyl-oxazol-5-ylmethyl)-amide] | < 100 |
| CCOC(=O)c1oc(CNC(=O)c2cc(NC(=O)c3cc(F)c(F)cc3Cl)[nH]n2)nc1C [Example 1-51, 5-(2-chloro-4,5-difluoro-benzoylamino)-1H-pyrazole-3-carboxylic acid (5-ethoxycarbonyl-4-methyl-oxazol-2-ylmethyl)-amide] | < 100 |
| O=C(NCc1nnc(-c2ccc(Cl)cc2)o1)c1cc(NC(=O)c2cc(F)c(F)cc2Cl)[nH]n1 [Example 1-52, 5-(2-chloro-4,5-difluoro-benzoylamino)-1H-pyrazole-3-carboxylic acid [5-(4-chloro-phenyl)-[1,3,4]oxadiazol-2-ylmethyl]-amide] | < 100 |
| Cc1ccccc1-c1nnc(CNC(=O)c2cc(NC(=O)c3cc(F)c(F)cc3Cl)[nH]n2)o1 [Example 1-53, 5-(2-chloro-4,5-difluoro-benzoylamino)-1H-pyrazole-3-carboxylic acid [5-(2-methyl-phenyl)-[1,3,4]oxadiazol-2-ylmethyl]-amide] | < 100 |
| CN(C)c1ccc(-c2nnc(CNC(=O)c3cc(NC(=O)c4cc(F)c(F)cc4Cl)[nH]n3)o2)cc1 [Example 1-54, 5-(2-chloro-4,5-difluoro-benzoylamino)-1H-pyrazole-3-carboxylic acid [5-(4-dimethylamino-phenyl)-[1,3,4]oxadiazol-2-ylmethyl]-amide] | < 100 |
| O=C(NCc1nnc(-c2ccc(C(F)(F)F)cc2)o1)c1cc(NC(=O)c2cc(F)c(F)cc2Cl)[nH]n1 [Example 1-55, 5-(2-chloro-4,5-difluoro-benzoylamino)-1H-pyrazole-3-carboxylic acid [5-(4-trifluoromethyl-phenyl)-[1,3,4]oxadiazol-2-ylmethyl]-amide] | > 300 |
| O=C(NCc1nnc(-c2cccc([N+](=O)[O-])c2)o1)c1cc(NC(=O)c2cc(F)c(F)cc2Cl)[nH]n1 [Example 1-56, 5-(2-chloro-4,5-difluoro-benzoylamino)-1H-pyrazole-3-carboxylic acid [5-(3-nitro-phenyl)-[1,3,4]oxadiazol-2-ylmethyl]-amide] | < 100 |

Further lines, results first:

| IC50 [nM] | Structure (SMILES) |
| --- | --- |
| < 100 | O=C(NCc1nnc(-c2cccc(O)c2)o1)c1cc(NC(=O)c2cc(F)c(F)cc2Cl)[nH]n1 [Example 1-57, 5-(2-chloro-4,5-difluoro-benzoylamino)-1H-pyrazole-3-carboxylic acid [5-(3-hydroxy-phenyl)-[1,3,4]oxadiazol-2-ylmethyl]-amide] |
| < 100 | O=C(NCc1nnc(-c2ccccc2O)o1)c1cc(NC(=O)c2cc(F)c(F)cc2Cl)[nH]n1 [Example 1-58, 5-(2-chloro-4,5-difluoro-benzoylamino)-1H-pyrazole-3-carboxylic acid [5-(2-hydroxy-phenyl)-[1,3,4]oxadiazol-2-ylmethyl]-amide] |
| < 100 | O=C(NCc1nnc(-c2cccc(Cl)c2)o1)c1cc(NC(=O)c2cc(F)c(F)cc2Cl)[nH]n1 [Example 1-59, 5-(2-chloro-4,5-difluoro-benzoylamino)-1H-pyrazole-3-carboxylic acid [5-(3-chloro-phenyl)-[1,3,4]oxadiazol-2-ylmethyl]-amide] |
| < 100 | COc1cccc(-c2nnc(CNC(=O)c3cc(NC(=O)c4cc(F)c(F)cc4Cl)[nH]n3)o2)c1 [Example 1-60, 5-(2-chloro-4,5-difluoro-benzoylamino)-1H-pyrazole-3-carboxylic acid [5-(3-methoxy-phenyl)-[1,3,4]oxadiazol-2-ylmethyl]-amide] |
| < 100 | COc1ccccc1-c1nnc(CNC(=O)c2cc(NC(=O)c3cc(F)c(F)cc3Cl)[nH]n2)o1 [Example 1-61, 5-(2-chloro-4,5-difluoro-benzoylamino)-1H-pyrazole-3-carboxylic acid [5-(2-methoxy-phenyl)-[1,3,4]oxadiazol-2-ylmethyl]-amide] |
| 100 to 300 | CCOC(=O)Cc1nnc(CNC(=O)c2cc(NC(=O)c3cc(F)c(F)cc3Cl)[nH]n2)o1 [Example 1-62] |
| < 100 | Cc1c(CNC(=O)c2cc(NC(=O)c3cc(F)c(F)cc3Cl)[nH]n2)nnn1Cc1ccc(Cl)cc1 [Example 1-63, 5-(2-chloro-4,5-difluoro-benzoylamino)-1H-pyrazole-3-carboxylic acid [1-(4-chloro-benzyl)-5-methyl-1H-[1,2,3]triazol-4-ylmethyl]-amide] |
| < 100 | Cc1ccc(Cn2nnc(CNC(=O)c3cc(NC(=O)c4cc(F)c(F)cc4Cl)[nH]n3)c2C)cc1 [Example 1-64, 5-(2-chloro-4,5-difluoro-benzoylamino)-1H-pyrazole-3-carboxylic acid [5-methyl-1-(4-methyl-benzyl)-1H-[1,2,3]triazol-4-ylmethyl]-amide] |
| < 100 | Cc1nc(Cn2nnc(CNC(=O)c3cc(NC(=O)c4cc(F)c(F)cc4Cl)[nH]n3)c2C)cs1 [Example 1-65, 5-(2-chloro-4,5-difluoro-benzoylamino)-1H-pyrazole-3-carboxylic acid [5-methyl-1-(2-methyl-thiazol-4-ylmethyl)-1H-[1,2,3]triazol-4-ylmethyl]-amide] |
| < 100 | Cc1cccc(-n2nc(C)c(CNC(=O)c3cc(NC(=O)c4cc(F)c(F)cc4Cl)[nH]n3)c2C)c1 [Example 1-66, 5-(2-chloro-4,5-difluoro-benzoylamino)-1H-pyrazole-3-carboxylic acid [3,5-dimethyl-1-(3-methyl-phenyl)-1H-pyrazol-4-ylmethyl]-amide] |
| < 100 | O=C(NCc1cnn(-c2ccc(F)cc2)c1C1CC1)c1cc(NC(=O)c2cc(F)c(F)cc2Cl)[nH]n1 [Example 1-67, 5-(2-chloro-4,5-difluoro-benzoylamino)-1H-pyrazole-3-carboxylic acid [5-cyclopropyl-1-(4-fluoro-phenyl)-1H-pyrazol-4-ylmethyl]-amide] |
| < 100 | Cc1ncc(CNC(=O)c2cc(NC(=O)c3cc(F)c(F)cc3Cl)[nH]n2)c(C2CC2)n1 [Example 1-68, 5-(2-chloro-4,5-difluoro-benzoylamino)-1H-pyrazole-3-carboxylic acid (4-cyclopropyl-2-methyl-pyrimidin-5-ylmethyl)-amide] |

— patent publication US20090036450A1, “PYRAZOLE COMPOUNDS AND USE THEREOF” (JAPAN TOBACCO, INC., priority 2006, published 2009)
